Test results published in patent publication US8815900B2, “Compounds and compositions for reducing lipid levels” (CVI Pharmaceuticals Limited, priority 2007, dated 2014).
Values joined by “and” are separate entries in the source; they are usually repeats but may differ in a detail not shown here. Equal values may be shown once.

Assay: Pharmacokinetics of CRDL in male hamsters following intravenous and oral administration
Format: in vivo
Details: for F: PO (20 mg/kg) vs IV (2 mg/kg)
Description: The plasma concentration of CRDL was determined in male hamsters following intravenous or oral administration. Hamsters were given CRDL at 2 mg/kg i.v. or 20 mg/kg p.o. Blood samples were collected at the indicated time points and the plasma was isolated.

[1] = IV (2 mg/kg), individual hamsters H1-H3, 2 mg/kg
[2] = PO (20 mg/kg), individual hamsters H4-H6, 20 mg/kg

## COc1cc2c(cc1OC)[C@H]1[C@@H](C)c3ccc(OC)c(OC)c3CN1CC2 [CRDL, 14R,13S-(+)-corydaline]
IV 2 mg/kg, 0.083 hr, individual hamsters H1-H3, 2 mg/kg
  Concentration in plasma: 621.33 ng/mL and 520.38 ng/mL and 641.16 ng/mL
IV 2 mg/kg, 0.083 hr, mean
  Concentration in plasma: 594.29 ng/mL
IV 2 mg/kg, 0.25 hr, individual hamsters H1-H3, 2 mg/kg
  Concentration in plasma: 255.56 ng/mL and 350.21 ng/mL and 318.96 ng/mL
IV 2 mg/kg, 0.25 hr, mean
  Concentration in plasma: 308.25 ng/mL
IV 2 mg/kg, 0.5 hr, individual hamsters H1-H3, 2 mg/kg
  Concentration in plasma: 124.95 ng/mL and 165.87 ng/mL and 130.79 ng/mL
IV 2 mg/kg, 0.5 hr, mean
  Concentration in plasma: 140.54 ng/mL
IV 2 mg/kg, 1 hr, individual hamsters H1-H3, 2 mg/kg
  Concentration in plasma: 60.71 ng/mL and 69.78 ng/mL and 69.09 ng/mL
IV 2 mg/kg, 1 hr, mean
  Concentration in plasma: 66.53 ng/mL
IV 2 mg/kg, 2 hr, individual hamsters H1-H3, 2 mg/kg
  Concentration in plasma: 23.92 ng/mL and 19.37 ng/mL and 27.99 ng/mL
IV 2 mg/kg, 2 hr, mean
  Concentration in plasma: 23.76 ng/mL
IV 2 mg/kg, 6 hr, individual hamsters H1-H3, 2 mg/kg
  Concentration in plasma: 6.34 ng/mL and 4.76 ng/mL and 4.67 ng/mL
IV 2 mg/kg, 6 hr, mean
  Concentration in plasma: 5.25 ng/mL
IV 2 mg/kg, 24 hr, individual hamsters H1-H3
  Concentration in plasma: BLQ
IV (2 mg/kg), individual hamsters H1-H3
  Tmax: 4.8 min
[1]
  AUC(0-t): 364.46 µg·h/L and 335.91 µg·h/L and 336.84 µg·h/L
  AUC(0-∞): 374 µg·h/L and 351 µg·h/L and 345 µg·h/L
  CLz: 5.35 L/h/kg and 5.70 L/h/kg and 5.80 L/h/kg
  Cmax: 641.16 µg/L and 621.33 µg/L and 520.38 µg/L
  MRT(0-∞): 0.98 h and 1.17 h and 0.94 h
  Vz: 10.44 L/kg and 13.64 L/kg and 9.96 L/kg
  t1/2z: 1.35 h and 1.66 h and 1.19 h
IV (2 mg/kg), mean
  AUC(0-t): 345.74 µg·h/L
  AUC(0-∞): 357 µg·h/L
  Cmax: 594.29 µg/L
  MRT(0-∞): 1.03 h
  Tmax: 4.8 min
  Vz: 11.35 L/kg
  t1/2z (half life): 1.4 h
IV (2 mg/kg), mean, 2 mg/kg
  CLz (clearance): 5.6 L/h/kg and 5.62 L/h/kg
PO 20 mg/kg, 0.25 hr, individual hamsters H4-H6, 20 mg/kg
  Concentration in plasma: 1263.21 ng/mL and 895.64 ng/mL and 1308.39 ng/mL
PO 20 mg/kg, 0.25 hr, mean
  Concentration in plasma: 1155.75 ng/mL
PO 20 mg/kg, 0.75 hr, individual hamsters H4-H6, 20 mg/kg
  Concentration in plasma: 369.71 ng/mL and 164.19 ng/mL and 217.42 ng/mL
PO 20 mg/kg, 0.75 hr, mean
  Concentration in plasma: 250.44 ng/mL
PO 20 mg/kg, 1 hr, individual hamsters H4-H6, 20 mg/kg
  Concentration in plasma: 254.54 ng/mL and 146.76 ng/mL and 199.83 ng/mL
PO 20 mg/kg, 1 hr, mean
  Concentration in plasma: 200.37 ng/mL
PO 20 mg/kg, 2 hr, individual hamsters H4-H6, 20 mg/kg
  Concentration in plasma: 98.97 ng/mL and 62.78 ng/mL and 81.27 ng/mL
PO 20 mg/kg, 2 hr, mean
  Concentration in plasma: 81.01 ng/mL
PO 20 mg/kg, 6 hr, individual hamsters H4-H6, 20 mg/kg
  Concentration in plasma: 14.54 ng/mL and 9.66 ng/mL and 20.83 ng/mL
PO 20 mg/kg, 6 hr, mean
  Concentration in plasma: 15.01 ng/mL
PO 20 mg/kg, 8 hr, individual hamsters H4-H6, 20 mg/kg
  Concentration in plasma: 10.93 ng/mL and 6.80 ng/mL and 18.54 ng/mL
PO 20 mg/kg, 8 hr, mean
  Concentration in plasma: 12.09 ng/mL
PO 20 mg/kg, 24 hr, individual hamsters H4-H6, 20 mg/kg
  Concentration in plasma: 3.41 ng/mL and 2.64 ng/mL and 3.12 ng/mL
PO 20 mg/kg, 24 hr, mean
  Concentration in plasma: 3.04 ng/mL
Individual hamsters H4-H6
  F: 34.56% and 22.28% and 33.19%
mean
  F: 30.01%
PO (20 mg/kg), individual hamsters H4-H6
  Tmax: 15 min
[2]
  AUC(0-t): 1188.19 µg·h/L and 756.88 µg·h/L and 1154.55 µg·h/L
  AUC(0-∞): 1230 µg·h/L and 795 µg·h/L and 1180 µg·h/L
  Cmax: 1263.21 µg/L and 895.64 µg/L and 1308.39 µg/L
  MRT(0-∞): 3.41 h and 3.96 h and 3.37 h
  t1/2z: 8.94 h and 10.13 h and 6.43 h
PO (20 mg/kg), mean
  AUC(0-t): 1033.21 µg·h/L
  AUC(0-∞): 1070 µg·h/L
  Cmax: 1155.75 µg/L
  MRT(0-∞): 3.58 h
  Tmax: ~15 min
  t1/2z: 8.50 h
